Test results from ChEMBL document CHEMBL1201862, “PubChem BioAssay data set” (2004).
The source made the active and inactive calls. Rule as the data show it: actives have a measured AC50 and inactives only a lower limit.

Legend:
CAAX prenyl protease 2 = target: T1, CAAX prenyl protease 2 (Homo sapiens, UniProt Q9Y256); test: inhibition of Ras-converting CAAX protease Rce1 – biochemical, yeast membranes, quenched-peptide fluorescence, cherry-pick, dose response (AID 588849)
T1 sequence (Q9Y256 whole entry): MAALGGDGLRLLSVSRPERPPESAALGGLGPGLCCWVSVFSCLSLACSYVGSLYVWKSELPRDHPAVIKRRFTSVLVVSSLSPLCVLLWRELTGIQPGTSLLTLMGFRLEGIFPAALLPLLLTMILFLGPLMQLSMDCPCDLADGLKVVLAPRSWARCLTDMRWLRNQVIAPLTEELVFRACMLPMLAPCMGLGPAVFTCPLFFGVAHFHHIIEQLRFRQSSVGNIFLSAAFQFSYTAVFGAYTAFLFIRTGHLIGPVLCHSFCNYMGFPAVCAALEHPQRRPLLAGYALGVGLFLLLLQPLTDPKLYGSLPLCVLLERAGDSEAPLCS

Trypsin = Trypsin (Sus scrofa, UniProt P00761); test: trypsin protease activity blockade – biochemical, quenched peptide fluorescence, cherry-pick, selectivity assay for Rce1 protease inhibitor project, dose response (AID 488789)
Sequence of Trypsin (P00761 whole entry): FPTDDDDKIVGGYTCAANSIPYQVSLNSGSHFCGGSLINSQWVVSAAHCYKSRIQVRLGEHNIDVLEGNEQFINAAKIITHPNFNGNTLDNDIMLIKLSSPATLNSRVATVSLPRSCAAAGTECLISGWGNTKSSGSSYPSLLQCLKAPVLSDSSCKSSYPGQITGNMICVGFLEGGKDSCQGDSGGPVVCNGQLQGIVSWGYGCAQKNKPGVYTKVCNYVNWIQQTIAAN

AC50 (CAAX prenyl protease 2): 5.44 µM (active)
AC50 (Trypsin): 1.41 µM (active)
Compound: C=CCn1c(=O)c2c(nc(-c3ccc(S(=O)(=O)O)cc3)n2C)n(C)c1=O
